{"source": "paper PMC11649115", "about": "“In vitro safety evaluation of dopamine D3R antagonist, R-VK4-116, as a potential medication for the treatment of opioid use disorder” (PLOS ONE, 2024)", "key": {"10 enzyme targets": {"test_system": "10 enzyme targets", "assay": "Enzyme and uptake assays", "format": "biochemical", "conditions": "10 μM", "description": "The purpose of this study was to provide a first step in preliminary safety assessments by providing early identification of potential off-target interactions for the optimization of safety margins. This study was conducted by Eurofins Cerep (France) and Eurofins Discovery (St. Charles, MO). R-VK4-116 was tested in enzyme and uptake assay with 10 enzyme targets (Figs 4 and 5 in S1 File), and cellular and nuclear receptor functional assays with 24 receptor targets (Figs 5 and 6 in S1 File). Compound enzyme inhibition effect was calculated as a % inhibition of control enzyme activity. The cellular agonist effect was calculated as a % of the control response to a known reference agonist for each target, and the cellular antagonist effect was calculated as a % inhibition of the control reference agonist response for each target."}, "D3R": {"target": "D3R", "parameters": "method as in PMID 31526003", "conditions": "read-out: binding affinity for D3R (Ki); cited from earlier work"}, "CYP1A2 mRNA": {"test_system": "CYP1A2 mRNA", "assay": "CYP induction, mRNA, primary cultured human hepatocytes", "format": "in vitro ADME", "conditions": "read-out: CYP1A2 mRNA Fold Induction (fold of vehicle control)", "excerpt": "Rifampicin as a positive control and solvent (0.1% DMSO) vehicle control were also included. The acceptance criteria for CYP induction was ≥ 2-fold induction for significant CYP activity, while the acceptance criteria for CYP mRNA was ≥ 4-fold for significant CYP induction."}, "CYP2C19": {"target": "CYP2C19 (Homo sapiens, UniProt P33261)", "sequence (P33261 whole entry)": "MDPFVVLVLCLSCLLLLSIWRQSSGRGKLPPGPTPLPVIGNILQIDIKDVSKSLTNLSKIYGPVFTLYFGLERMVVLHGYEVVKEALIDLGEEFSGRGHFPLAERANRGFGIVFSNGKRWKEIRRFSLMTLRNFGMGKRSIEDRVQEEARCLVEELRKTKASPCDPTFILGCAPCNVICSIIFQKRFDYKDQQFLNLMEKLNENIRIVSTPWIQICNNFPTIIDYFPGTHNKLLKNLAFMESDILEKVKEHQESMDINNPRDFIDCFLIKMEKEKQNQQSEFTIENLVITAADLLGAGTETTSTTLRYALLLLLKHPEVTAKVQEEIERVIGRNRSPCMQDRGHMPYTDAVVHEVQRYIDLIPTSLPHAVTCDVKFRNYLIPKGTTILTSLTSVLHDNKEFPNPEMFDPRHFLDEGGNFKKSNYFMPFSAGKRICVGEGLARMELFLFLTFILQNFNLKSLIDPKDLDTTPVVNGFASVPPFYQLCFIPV", "assay": "CYP inhibition in human liver microsomes", "conditions": "human liver microsomes"}, "BCRP": {"target": "T1, BCRP (Homo sapiens, UniProt Q9UNQ0)", "T1 construct": "expressed in transfected cells; host or cells: MDCK-II cells", "T1 sequence (Q9UNQ0 1-655)": "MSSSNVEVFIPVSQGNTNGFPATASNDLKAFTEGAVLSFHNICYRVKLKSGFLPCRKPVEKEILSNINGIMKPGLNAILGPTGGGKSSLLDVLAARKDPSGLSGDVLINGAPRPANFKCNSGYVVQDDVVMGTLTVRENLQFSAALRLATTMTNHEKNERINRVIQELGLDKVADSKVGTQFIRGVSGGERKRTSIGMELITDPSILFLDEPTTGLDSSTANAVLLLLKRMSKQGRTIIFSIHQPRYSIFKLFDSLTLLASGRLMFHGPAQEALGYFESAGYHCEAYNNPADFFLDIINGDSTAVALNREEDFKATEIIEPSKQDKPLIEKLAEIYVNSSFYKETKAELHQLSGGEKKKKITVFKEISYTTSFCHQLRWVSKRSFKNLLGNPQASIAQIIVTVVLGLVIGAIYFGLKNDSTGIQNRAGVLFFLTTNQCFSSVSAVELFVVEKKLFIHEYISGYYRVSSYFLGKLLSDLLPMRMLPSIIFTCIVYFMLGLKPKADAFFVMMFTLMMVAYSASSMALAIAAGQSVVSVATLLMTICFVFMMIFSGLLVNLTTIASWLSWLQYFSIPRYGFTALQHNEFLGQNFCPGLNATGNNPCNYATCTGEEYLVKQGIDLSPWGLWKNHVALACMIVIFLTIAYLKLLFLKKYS", "assay": "Transporter mediated assay (substrate/inhibitor), MDCK-II cells", "format": "in vitro ADME", "quoted_text": "The MDCK-II cells were treated to express the transporter of interest.\nFor BCRP and P-gp, the apparent permeability Papp and Efflux Ratio (ER) were calculated [16]. Net basal (B) to apical (A) flux (B → A) of the substrate transport (pmol/min/cm^2) by BCRP or P-gp was calculated by subtracting A → B flux from B → A flux."}, "MARK3": {"target": "T2, MARK3 (Homo sapiens, UniProt P27448)", "T2 construct": "made in house; host or cells: E. coli BL21-derived host (T7 phage) or HEK-293", "T2 sequence (P27448 whole entry)": "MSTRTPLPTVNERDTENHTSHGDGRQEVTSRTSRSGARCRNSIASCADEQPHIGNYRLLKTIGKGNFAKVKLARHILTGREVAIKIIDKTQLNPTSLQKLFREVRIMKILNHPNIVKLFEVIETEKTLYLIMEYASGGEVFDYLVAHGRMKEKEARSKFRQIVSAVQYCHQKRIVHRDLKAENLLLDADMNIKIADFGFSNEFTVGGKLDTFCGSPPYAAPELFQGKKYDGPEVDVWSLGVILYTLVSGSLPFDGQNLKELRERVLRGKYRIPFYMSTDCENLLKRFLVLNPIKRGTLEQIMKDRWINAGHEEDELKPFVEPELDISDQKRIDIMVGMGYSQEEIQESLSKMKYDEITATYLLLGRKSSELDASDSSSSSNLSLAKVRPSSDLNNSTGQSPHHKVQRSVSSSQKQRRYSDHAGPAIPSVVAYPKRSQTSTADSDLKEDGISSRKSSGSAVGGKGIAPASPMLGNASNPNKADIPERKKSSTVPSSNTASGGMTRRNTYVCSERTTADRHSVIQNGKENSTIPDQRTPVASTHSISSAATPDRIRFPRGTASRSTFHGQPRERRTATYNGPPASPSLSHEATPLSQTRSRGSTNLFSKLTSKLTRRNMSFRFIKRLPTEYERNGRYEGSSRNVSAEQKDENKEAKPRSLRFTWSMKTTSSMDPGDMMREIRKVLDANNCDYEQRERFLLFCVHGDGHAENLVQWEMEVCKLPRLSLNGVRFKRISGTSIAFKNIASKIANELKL", "assay": "KINOMEscan binding (% Ctrl, Kd)", "quoted_text": "Briefly, E. coli host derived from the BL21 strain were grown to log-phase and infected with kinase-tagged T7 phage and incubated with shaking at 32°C until lysis. The lysates were centrifuged and filtered to remove cell debris. The remaining kinases were produced in HEK-293 cells and subsequently tagged with DNA for qPCR detection. Streptavidin-coated magnetic beads were treated with biotinylated small molecule ligands to generate affinity resins for kinase assays. The liganded beads were blocked with excess biotin and washed to remove unbound ligand and to reduce non-specific phage binding. […] Selectivity Score (S-score) was a quantitative measure of compound selectivity. […] The binding constants (Kds) were also determined with a standard dose-response curve using the Hill equation and Levenberg-Marquardt algorithm [24, 25]."}, "[1]": {"parameters": "method as in PMID 31526003", "conditions": "rats, 10 mg/kg oral dose ref 8; cited from earlier work"}, "HepG2 cells": {"test_system": "HepG2 cells", "assay": "Mitochondrial toxicity (MT) assay panel", "format": "cell-based", "description": "The assay results were presented as % cell viability. […] After each incubation, the cells were harvested and lysed to test the MT assay panel. The Zalcitabine (positive control) was also included in this assay (Fig 3 in S1 File). The levels of Mitochondrial Oxidative Phosphorylation (OXPHOS) complex 1 (NADH dehydrogenase; ab178011, lot #GR 3339973–1), complex 3 (CytC reductase; ab124537, lot #GR3276896-3), complex 4 (CytC Oxidase; ab179880, lot #GR3273194-1), and complex 5 (ATP synthase; ab124539, lot #GR3267780-4) in the cell lysates were determined using respective indirect ELISA as per manufacturer’s instructions. The total ATP content of the cell lysates was determined using an ATP assay kit (ab83355, lot #GR3314128-2, Abcam, Cambridge, MA). The Caspase 3 content of the cell lysates was determined using the Caspase-3 assay kit (ab39401, lot #GR3322733-1, Abcam, Cambridge, MA). In addition, the total glutathione content was determined using the total glutathione (GSSG/GSH) assay kit (STA-312, lot #09100263, Oxiselect™, San Diego, CA). Using an Oxiselect™ ROS/RNS assay kit (STA-347, lot #7081343, Cell Biolabs Inc. San Diego, CA), the ROS/RNS content of the cell lysates was determined by fluorescence assay."}, "[2]": {"conditions": "HepG2, 0.1, 1 and 10 μM, 7- and 14-day"}}, "note": "Like-named read-outs stand apart in the source and are kept apart here.", "data": [{"smiles": "CCc1cc(Cl)c(OC)c(N2CCN(CC(O)CCNC(=O)c3cc4ccccc4[nH]3)CC2)c1", "note": "(stereo not drawn) [R-VK4-116, N-(4-(4-(3-chloro-5-ethyl-2-methoxyphenyl)piperazin-1-yl)-3-hydroxybutyl)-1H-indole-2-carboxamide]", "values": [{"measurement": "enzyme inhibition effects or uptake", "setting": "10 enzyme targets", "value": "did not show any enzyme inhibition effects or uptake"}, {"measurement": "Ki", "setting": "D3R", "value": 7.4, "unit": "nM"}, {"measurement": "fold induction at 48 h, 0.01 µM", "setting": "CYP1A2 mRNA; Lot 336, 0.01 μM", "value": 1.1}, {"measurement": "fold induction at 48 h, 0.1 µM", "setting": "CYP1A2 mRNA; Lot 336, 0.1 μM", "value": 1.2}, {"measurement": "fold induction at 48 h, 1 µM", "setting": "CYP1A2 mRNA; Lot 336, 1 μM", "value": 1.6}, {"measurement": "fold induction at 48 h, 3 µM", "setting": "CYP1A2 mRNA; Lot 336, 3 μM", "value": 1.9}, {"measurement": "fold induction at 48 h, 5 µM", "setting": "CYP1A2 mRNA; Lot 336, 5 μM", "value": 1.8}, {"measurement": "fold induction at 48 h, 10 µM", "setting": "CYP1A2 mRNA; Lot 336, 10 μM", "value": 1.9}, {"measurement": "fold induction at 48 h, 0.01 µM", "setting": "CYP1A2 mRNA; Lot 348B, 0.01 μM", "value": 1.1}, {"measurement": "fold induction at 48 h, 0.1 µM", "setting": "CYP1A2 mRNA; Lot 348B, 0.1 μM", "value": 1.4}, {"measurement": "fold induction at 48 h, 1 µM", "setting": "CYP1A2 mRNA; Lot 348B, 1 μM", "value": 1.3}, {"measurement": "fold induction at 48 h, 3 µM", "setting": "CYP1A2 mRNA; Lot 348B, 3 μM", "value": 1.5}, {"measurement": "fold induction at 48 h, 5 µM", "setting": "CYP1A2 mRNA; Lot 348B, 5 μM", "value": 1.6}, {"measurement": "fold induction at 48 h, 10 µM", "setting": "CYP1A2 mRNA; Lot 348B, 10 μM", "value": 1.5}, {"measurement": "fold induction at 48 h, 0.01 µM", "setting": "CYP1A2 mRNA; Lot 399, 0.01 μM", "value": 1.6}, {"measurement": "fold induction at 48 h, 0.1 µM", "setting": "CYP1A2 mRNA; Lot 399, 0.1 μM", "value": 1.8}, {"measurement": "fold induction at 48 h, 1 µM", "setting": "CYP1A2 mRNA; Lot 399, 1 μM", "value": 1.7}, {"measurement": "fold induction at 48 h, 3 µM", "setting": "CYP1A2 mRNA; Lot 399, 3 μM", "value": 1.9}, {"measurement": "fold induction at 48 h, 5 µM", "setting": "CYP1A2 mRNA; Lot 399, 5 μM", "value": 1.6}, {"measurement": "fold induction at 48 h, 10 µM", "setting": "CYP1A2 mRNA; Lot 399, 10 μM", "value": 1.6}, {"measurement": "CYP2C19 inhibition", "setting": "CYP2C19; up to 100 μM", "value": "did not inhibit CYP significantly"}, {"measurement": "activity at 20 min, 0.1 µM", "setting": "CYP2C19; human, probe mephenytoin", "value": "102 ± 4.6", "unit": "%"}, {"measurement": "activity at 20 min, 0.3 µM", "setting": "CYP2C19; human, probe mephenytoin", "value": "96.2 ± 5", "unit": "%"}, {"measurement": "activity at 20 min, 1 µM", "setting": "CYP2C19; human, probe mephenytoin", "value": "97.3 ± 2.2", "unit": "%"}, {"measurement": "activity at 20 min, 3 µM", "setting": "CYP2C19; human, probe mephenytoin", "value": "95.9 ± 3.6", "unit": "%"}, {"measurement": "activity at 20 min, 10 µM", "setting": "CYP2C19; human, probe mephenytoin", "value": "99.6 ± 3.3", "unit": "%"}, {"measurement": "activity at 20 min, 30 µM", "setting": "CYP2C19; human, probe mephenytoin", "value": "96.7 ± 3.5", "unit": "%"}, {"measurement": "activity at 20 min, 60 µM", "setting": "CYP2C19; human, probe mephenytoin", "value": "95 ± 5.4", "unit": "%"}, {"measurement": "activity at 20 min, 100 µM", "setting": "CYP2C19; human, probe mephenytoin", "value": "99.7 ± 3.4", "unit": "%"}, {"measurement": "Papp A→B at 1 µM", "setting": "BCRP; BCRP, substrate test, 1 µM", "value": "< 0.2", "unit": "×10⁻⁶ cm/s"}, {"measurement": "Papp B→A at 1 µM", "setting": "BCRP; BCRP, substrate test, 1 µM", "value": "< 0.1", "unit": "×10⁻⁶ cm/s"}, {"measurement": "inhibition at 10 µM", "setting": "BCRP; probe prazosin 2 μM", "value": "54 ± 1.46", "unit": "%"}, {"measurement": "Kd", "setting": "MARK3; 11-point curve 0.001 to 10 μM, read-out: binding constant (Kd)", "value": "> 10000", "unit": "nM"}, {"measurement": "remaining binding at 1 µM", "setting": "MARK3; read-out: %Control", "value": "< 35", "unit": "%"}, {"measurement": "remaining binding at 1 µM", "setting": "MARK3; read-out: Gene (S-score with % control): MARK3", "value": 0, "unit": "%"}, {"measurement": "Cmax", "setting": "[1]", "value": 454, "unit": "nM"}, {"measurement": "OXPHOS complex 1, 3, 4, and 5 or total ATP levels", "setting": "HepG2 cells; [2]", "value": "No significant decrease"}, {"measurement": "caspase 3, or total glutathione levels", "setting": "HepG2 cells; [2]", "value": "no significant increase"}, {"measurement": "increase in ROS/RNS levels compared with the solvent control", "setting": "HepG2 cells; HepG2, 7-days, all three concentrations (0.1, 1, 10 μM)", "value": "10–35%"}]}]}
